≈ marks a conversion by molar mass, not a printed value.
Assays:
Test in all cases: In vitro antibacterial activity, agar plate dilution method (MIC)
[1] = system: Ps.cepacia 23; format: cell-based, Pseudomonas cepacia; settings: Burkholderia cepacia; Ps.cepacia 23; Mueller Hinton agar, inoculum 10⁶ CFU/ml, 37°C, 16 hours; read-out: Minimum Inhibitory Concentration (MIC: µg/ml)
Method: (§1) The in vitro antibacterial activities of the compounds of the present invention against various microorganisms, were measured by the following agar plate dilution method. One platinum loopfull of each test microorganism incubated overnight in Mueller Hinton broth, was inoculated to Mueller Hinton agar (inoculum size: l0⁶ CFU/ml). Such culture media containing various antibiotics in various concentrations were prepared. After incubation at 37°C for l6 hours, the minimum inhibitory concentrations (MIC: µg/ml) were measured. As comparative compounds, Cefotaxime, Ceftazidime and the compounds of Reference Examples l to 4 were employed.

[2] = system: S.marcescens IAM 1184; format: cell-based; settings: Serratia marcescens, IAM1184; S.marcescens IAM 1184; Mueller Hinton agar, inoculum 10⁶ CFU/ml, 37°C, 16 hours; read-out: Minimum Inhibitory Concentration (MIC: µg/ml)
Method: as §1

[3] = system: S.marcescens No. 16-2; format: cell-based; settings: Serratia marcescens, NO.162; S.marcescens No. 16-2 (β-Lactamase-producing strain); Mueller Hinton agar, inoculum 10⁶ CFU/ml, 37°C, 16 hours; read-out: Minimum Inhibitory Concentration (MIC: µg/ml)
Method: as §1

[4] = system: S.aureus JS1; format: cell-based; settings: Staphylococcus aureus; S.aureus JS1 (β-Lactamase-producing strain); Mueller Hinton agar, inoculum 10⁶ CFU/ml, 37°C, 16 hours; read-out: Minimum Inhibitory Concentration (MIC: µg/ml)
Method: as §1

[5] = system: P.vulgaris HX-19; format: cell-based; settings: Proteus vulgaris, HX19; P.vulgaris HX-19; Mueller Hinton agar, inoculum 10⁶ CFU/ml, 37°C, 16 hours; read-out: Minimum Inhibitory Concentration (MIC: µg/ml)
Method: as §1

[6] = system: Ps.aeruginosa IFO3445; format: cell-based; settings: Pseudomonas aeruginosa; Ps.aeruginosa IFO3445; Mueller Hinton agar, inoculum 10⁶ CFU/ml, 37°C, 16 hours; read-out: Minimum Inhibitory Concentration (MIC: µg/ml)
Method: as §1

[7] = system: E.coli CSH2 (RK1); format: cell-based; settings: Escherichia coli, 16 h, read-out: Minimum Inhibitory Concentration (MIC: µg/ml)
Method: as §1

[8] = system: E.coli GN5482; format: cell-based; settings: Escherichia coli; E.coli GN5482 (β-Lactamase-producing strain); Mueller Hinton agar, inoculum 10⁶ CFU/ml, 37°C, 16 hours; read-out: Minimum Inhibitory Concentration (MIC: µg/ml)
Method: as §1

[9] = system: M.morganii GN5407; format: cell-based; settings: Morganella morganii; M.morganii GN5407 (β-Lactamase-producing strain); Mueller Hinton agar, inoculum 10⁶ CFU/ml, 37°C, 16 hours; read-out: Minimum Inhibitory Concentration (MIC: µg/ml)
Method: as §1

[10] = system: E.coli CSH(RE45); format: cell-based; settings: Escherichia coli, 16 h, read-out: Minimum Inhibitory Concentration (MIC: µg/ml)
Method: as §1

[11] = system: E.cloacae Nek 39; format: cell-based; settings: Enterobacter cloacae, NEK39; E.cloacae Nek 39 (β-Lactamase-producing strain); Mueller Hinton agar, inoculum 10⁶ CFU/ml, 37°C, 16 hours; read-out: Minimum Inhibitory Concentration (MIC: µg/ml)
Method: as §1

[12] = system: E.cloacae 963; format: cell-based; settings: Enterobacter cloacae; E.cloacae 963; Mueller Hinton agar, inoculum 10⁶ CFU/ml, 37°C, 16 hours; read-out: Minimum Inhibitory Concentration (MIC: µg/ml)
Method: as §1

[13] = system: S.aureus 209P NIHJ-JC1; format: cell-based; settings: Staphylococcus aureus; S.aureus 209P NIHJ-JC1; Mueller Hinton agar, inoculum 10⁶ CFU/ml, 37°C, 16 hours; read-out: Minimum Inhibitory Concentration (MIC: µg/ml)
Method: as §1

[14] = system: E.coli NIHJ JC2; format: cell-based; settings: Escherichia coli, NIHJJC2; E.coli NIHJ JC2; Mueller Hinton agar, inoculum 10⁶ CFU/ml, 37°C, 16 hours; read-out: Minimum Inhibitory Concentration (MIC: µg/ml)
Method: as §1

[15] = system: K.oxytoca GN10650; format: cell-based; settings: Klebsiella oxytoca; K.oxytoca GN10650 (β-Lactamase-producing strain); Mueller Hinton agar, inoculum 10⁶ CFU/ml, 37°C, 16 hours; read-out: Minimum Inhibitory Concentration (MIC: µg/ml)
Method: as §1

[16] = system: A.calcoaceticus No. 4; format: cell-based; settings: Acinetobacter calcoaceticus; A.calcoaceticus No. 4; Mueller Hinton agar, inoculum 10⁶ CFU/ml, 37°C, 16 hours; read-out: Minimum Inhibitory Concentration (MIC: µg/ml)
Method: as §1

[17] = system: Ps.aeruginosa AK 109; format: cell-based; settings: Pseudomonas aeruginosa, AK109; Ps.aeruginosa AK 109; Mueller Hinton agar, inoculum 10⁶ CFU/ml, 37°C, 16 hours; read-out: Minimum Inhibitory Concentration (MIC: µg/ml)
Method: as §1

[18] = system: K.pneumoniae No. 42; format: cell-based; settings: Klebsiella pneumoniae; K.pneumoniae No. 42 (β-Lactamase-producing strain); Mueller Hinton agar, inoculum 10⁶ CFU/ml, 37°C, 16 hours; read-out: Minimum Inhibitory Concentration (MIC: µg/ml)
Method: as §1

[19] = system: C.freundii GN346/16; format: cell-based; settings: Citrobacter freundii; C.freundii GN346/16; Mueller Hinton agar, inoculum 10⁶ CFU/ml, 37°C, 16 hours; read-out: Minimum Inhibitory Concentration (MIC: µg/ml)
Method: as §1

[20] = system: C.freundii GN346; format: cell-based; settings: Citrobacter freundii; C.freundii GN346 (β-Lactamase-producing strain); Mueller Hinton agar, inoculum 10⁶ CFU/ml, 37°C, 16 hours; read-out: Minimum Inhibitory Concentration (MIC: µg/ml)
Method: as §1

[21] = system: K.pneumoniae PCI-602; format: cell-based; settings: Klebsiella pneumoniae, PCI602; K.pneumoniae PCI-602; Mueller Hinton agar, inoculum 10⁶ CFU/ml, 37°C, 16 hours; read-out: Minimum Inhibitory Concentration (MIC: µg/ml)
Method: as §1

[22] = system: P.vulgaris No. 33; format: cell-based; settings: Proteus vulgaris; P.vulgaris No. 33 (β-Lactamase-producing strain); Mueller Hinton agar, inoculum 10⁶ CFU/ml, 37°C, 16 hours; read-out: Minimum Inhibitory Concentration (MIC: µg/ml)
Method: as §1

[23] = system: S.aureus BB5703; format: cell-based; settings: Staphylococcus aureus; S.aureus BB5703; Mueller Hinton agar, inoculum 10⁶ CFU/ml, 37°C, 16 hours; read-out: Minimum Inhibitory Concentration (MIC: µg/ml)
Method: as §1

[24] = system: Ps.aeruginosa AKR17; format: cell-based; settings: Pseudomonas aeruginosa; Ps.aeruginosa AKR17; Mueller Hinton agar, inoculum 10⁶ CFU/ml, 37°C, 16 hours; read-out: Minimum Inhibitory Concentration (MIC: µg/ml)
Method: as §1

[25] = system: Ps.maltophilia GN 12873; format: cell-based, Pseudomonas maltophilia; settings: Stenotrophomonas maltophilia, GN12873; Ps.maltophilia GN 12873 (β-Lactamase-producing strain); Mueller Hinton agar, inoculum 10⁶ CFU/ml, 37°C, 16 hours; read-out: Minimum Inhibitory Concentration (MIC: µg/ml)
Method: as §1

Compound	MIC [1] [µg/mL]	MIC [2] [µg/mL]	MIC [3] [µg/mL]	MIC [4] [µg/mL]	MIC [5] [µg/mL]	MIC [6] [µg/mL]	MIC [7] [µg/mL]	MIC [8] [µg/mL]	MIC [9] [µg/mL]	MIC [10] [µg/mL]	MIC [11] [µg/mL]	MIC [12] [µg/mL]	MIC [13] [µg/mL]	MIC [14] [µg/mL]	MIC [15] [µg/mL]	MIC [16] [µg/mL]	MIC [17] [µg/mL]	MIC [18] [µg/mL]	MIC [19] [µg/mL]	MIC [20] [µg/mL]	other results
CC(C)(ON=C(C(=O)NC1C(=O)N2C(C(=O)[O-])=C(C[n+]3ccc4c(O)cccc4c3)CSC12)c1csc(N)n1)C(=O)O (stereo not drawn) [Reference Ex. 4, sodium 7-[2-(2-aminothiazol-4-yl)-2-(l-carboxylato-l-methylethoxyimino)acetamido]-3-(5-hydroxy-2-isoquinolinio)methyl-3-cephem-4-carboxylate, reference compound]	1.56	0.2	6.25	100	0.0125	6.25	0.39	6.25	0.1	0.39	12.5	0.78	12.5	0.78	0.39	25	6.25	0.78	1.56	> 100	MIC [21]: 0.2 µg/mL; MIC [22]: 0.1 µg/mL; MIC [23]: 100 µg/mL; MIC [24]: > 100 µg/mL; MIC [25]: 50 µg/mL
CON=C(C(=O)NC1C(=O)N2C(C(=O)[O-])=C(C[n+]3ccc4c(O)cccc4c3)CS[C@H]12)c1csc(N)n1 (stereo partly drawn) [Reference Ex. 2, 7-[2-(2-aminothiazol-4-yl)-2-methoxyiminoacetamido]-3-(5-hydroxy-2-isoquinolinio)methyl-3-cephem-4-carboxylate, reference compound]	6.25 (≈ 11.6 µM)	0.025 (≈ 0.0462 µM)	3.12 (≈ 5.77 µM)	6.25 (≈ 11.6 µM)	< 0.006	3.12 (≈ 5.77 µM)	0.025 (≈ 0.0462 µM)	0.2 (≈ 0.37 µM)	0.025 (≈ 0.0462 µM)	1.56 (≈ 2.89 µM)	0.78 (≈ 1.44 µM)	0.025 (≈ 0.0462 µM)	0.39 (≈ 0.721 µM)	0.025 (≈ 0.0462 µM)	12.5 (≈ 23.1 µM)	12.5 (≈ 23.1 µM)	3.12 (≈ 5.77 µM)	0.1 (≈ 0.185 µM)	0.1 (≈ 0.185 µM)	6.25 (≈ 11.6 µM)	MIC [21]: < 0.006 µg/mL; MIC [22]: 0.1 µg/mL (≈ 0.185 µM); MIC [23]: 3.12 µg/mL (≈ 5.77 µM); MIC [24]: > 100 µg/mL; MIC [25]: > 100 µg/mL
CON=C(C(=O)NC1C(=O)N2C(C(=O)[O-])=C(C[n+]3ccc4cccc(O)c4c3)CS[C@H]12)c1csc(N)n1 (stereo partly drawn) [Reference Ex. 3, 7-[2-(2-aminothiazol-4-yl)-2-methoxyiminoacetamido]-3-(8-hydroxy-2-isoquinolinio)methyl-3-cephem-4-carboxylate, reference compound]	6.25 (≈ 11.6 µM)	0.025 (≈ 0.0462 µM)	3.12 (≈ 5.77 µM)	25 (≈ 46.2 µM)	0.0125 (≈ 0.0231 µM)	12.5 (≈ 23.1 µM)	0.025 (≈ 0.0462 µM)	0.39 (≈ 0.721 µM)	0.025 (≈ 0.0462 µM)	0.39 (≈ 0.721 µM)	0.78 (≈ 1.44 µM)	0.05 (≈ 0.0925 µM)	0.78 (≈ 1.44 µM)	0.05 (≈ 0.0925 µM)	3.12 (≈ 5.77 µM)	25 (≈ 46.2 µM)	50 (≈ 92.5 µM)	0.1 (≈ 0.185 µM)	0.1 (≈ 0.185 µM)	12.5 (≈ 23.1 µM)	MIC [21]: < 0.006 µg/mL; MIC [22]: 0.05 µg/mL (≈ 0.0925 µM); MIC [23]: 3.12 µg/mL (≈ 5.77 µM); MIC [24]: > 100 µg/mL; MIC [25]: > 100 µg/mL

Source: patent EP0238060B1, “Cephalosporin derivatives, processes for their preparation and antibacterial agents” (Banyu Pharmaceutical Co., Ltd., priority 1986, dated 1987)
